{"source": "ChEMBL document CHEMBL4431334", "about": "“Occupying a flat subpocket in a tRNA-modifying enzyme with ordered or disordered side chains: Favorable or unfavorable for binding?” (Bioorg Med Chem, 2016)", "key": {"[1]": {"test": "Binding affinity to Zymomonas mobilis tRNA guanine transglycosylase assessed as inhibition of [8-3H]guanine incorporation into Escherichia coli tRNA Tyr at position G34 preincubated for 10 mins followed by tRNA Tyr/[8-3H]guanine addition measured after 30 mins by liquid scintillation counting"}, "[2]": {"test": "Binding affinity to Zymomonas mobilis tRNA guanine transglycosylase by isothermal titration calorimetry"}}, "note": "pKd, pKi: −log10 of the molar value."}
{"molecule": "N#Cc1ccc(CCNc2nc3cc4nc(N)[nH]c(=O)c4cc3[nH]2)cc1", "values": [{"measurement": "pKi", "setting": "[1]", "value": 7.68}]}
{"molecule": "Nc1nc2cc3nc(NCCc4ccc(CCO)cc4)[nH]c3cc2c(=O)[nH]1", "values": [{"measurement": "pKi", "setting": "[1]", "value": 8.15}]}
{"molecule": "Nc1nc2cc3nc(NCCc4ccc(C(=O)O)cc4)[nH]c3cc2c(=O)[nH]1", "values": [{"measurement": "pKd", "setting": "[2]", "value": 7.53}, {"measurement": "pKi", "setting": "[1]", "value": 7.52}]}
{"molecule": "COC(=O)c1ccc(CCNc2nc3cc4nc(N)[nH]c(=O)c4cc3[nH]2)cc1", "values": [{"measurement": "pKi", "setting": "[1]", "value": 8.70}]}
{"molecule": "Nc1nc2cc3nc(NCCc4ccccc4)[nH]c3cc2c(=O)[nH]1", "values": [{"measurement": "pKd", "setting": "[2]", "value": 7.25}, {"measurement": "pKi", "setting": "[1]", "value": 8.00}]}
